According to PMC10492809, “A Bischler-Napieralski and homo-Mannich sequence enables diversified syntheses of sarpagine alkaloids and analogues” (Nature Communications, 2023):
Where “and” joins values, the source holds several entries; their conditions need not be identical. Identical values can stand only once. Like-named read-outs stand apart in the source and are kept apart here.

How the values were obtained:
Type in all cases: cell-based
[1] = system: MIA PaCa-2; assay: MTT cell viability assay, MIA PaCa-2
Protocol: (§1) All cell lines were cultured at 37 °C with 5% CO2 in a humidified incubator. HeLa cells were grown in MEM (Gibco) supplemented with 10% fetal bovine serum (FBS, Hyclone) and 1% penicillin/streptomycin (Gibco). MIA PaCa-2, MDA-MB-231, A549, MCF-7, A375 and BEAS-2B cells were grown in DMEM (Gibco) supplemented with 10% FBS and 1% penicillin/streptomycin. CT26, and HCT116 cells were grown in RPMI-1640 supplemented with 10% FBS and 1% penicillin/streptomycin. All cell lines were purchased from the National Collection of Authenticated Cell Cultures (China).
(§2) The antiproliferative activities of the prepared compounds against tested cell lines were evaluated using a standard (MTT)-based colorimetric assay. Cells were plated at a density of 3000 cells/well in 96-well plates and allowed to adhere overnight. Then cells were treated with varying concentrations of synthesized compounds for 72 h. At the end of treatment, 20 μL of thiazolyl blue tetrazolium bromide (MTT) solution (5 mg/mL) was added to each well. Cells were incubated for an additional 4 h at 37 °C and then the medium was removed and replaced with 200 μL of DMSO. The absorbance (OD490) was read on a microplate reader (SpectraMax i3x, Molecular Devices, US). In all experiments, three replicate wells were used for each drug concentration. Each assay was performed at least three times. The IC50 values were calculated by GraphPad Prism 9, which were the mean values derived from three independent experiments.

[2] = system: MDA-MB-231; assay: MTT cell viability assay, MDA-MB-231
Protocol: as §1, §2

[3] = system: Hela; assay: MTT cell viability assay, Hela
Protocol: as §1, §2

[4] = system: A549; assay: MTT cell viability assay, A549
Protocol: as §1, §2

[5] = system: MCF-7; assay: MTT cell viability assay, MCF-7
Protocol: as §1, §2

[6] = system: CT26; assay: MTT cell viability assay, CT26
Protocol: as §1, §2

[7] = system: HCT 116; assay: MTT cell viability assay, HCT 116
Protocol: as §1, §2

[8] = system: A375; assay: MTT cell viability assay, A375
Protocol: as §1, §2

[9] = MTT cytotoxicity towards normal cells, BEAS-2B; details: human
Protocol: as §1, §2

[10] = system: cancer cell lines; assay: In vitro cancer cell assays (antiproliferation, cell line not given); details: cell line not given
Protocol: as §1, §2

[11] = system: lung epithelial BEAS-2B cells; assay: MTT cytotoxicity towards normal cells, BEAS-2B; details: for CC50: MTT, 72 h, cytotoxicity towards normal cells, mean of at least three independent experiments; for IC50: source data sheet, single values of three experiments
Protocol: as §1, §2

[12] = source data sheet, single values of three experiments, read-out: MTT IC50 MIA PaCa-2
[13] = source data sheet, single values of three experiments, read-out: MTT IC50 MDA-MB-231
[14] = source data sheet, single values of three experiments, read-out: MTT IC50 Hela
[15] = source data sheet, single values of three experiments, read-out: MTT IC50 A549
[16] = source data sheet, single values of three experiments, read-out: MTT IC50 MCF-7
[17] = source data sheet, single values of three experiments, read-out: MTT IC50 CT-26
[18] = source data sheet, single values of three experiments, read-out: MTT IC50 HCT-116
[19] = source data sheet, single values of three experiments, read-out: MTT IC50 A375
[20] = MTT, 72 h, mean of at least three independent experiments, read-out: IC50 MIA PaCa-2
[21] = MTT, 72 h, mean of at least three independent experiments, read-out: IC50 MDA-MB-231
[22] = MTT, 72 h, mean of at least three independent experiments, read-out: IC50 Hela
[23] = MTT, 72 h, mean of at least three independent experiments, read-out: IC50 A549
[24] = MTT, 72 h, mean of at least three independent experiments, read-out: IC50 MCF-7
[25] = MTT, 72 h, mean of at least three independent experiments, read-out: IC50 CT26
[26] = MTT, 72 h, mean of at least three independent experiments, read-out: IC50 HCT 116
[27] = MTT, 72 h, mean of at least three independent experiments, read-out: IC50 A375

SMILES	IC50 [1, 12]	IC50 [2, 13]	IC50 [3, 14]	IC50 [4, 15]	IC50 [5, 16]	IC50 [6, 17]	IC50 [7, 18]	IC50 [8, 19]	IC50 [1, 20] [µM]	IC50 [2, 21] [µM]	IC50 [3, 22] [µM]	IC50 [4, 23] [µM]	IC50 [5, 24] [µM]	IC50 [6, 25] [µM]	IC50 [7, 26] [µM]	IC50 [8, 27] [µM]	CC50 [11] [µM]	IC50 [11] [µM]	further results
C=C=C1CN2[C@H]3C[C@H]1[C@H](C=O)[C@@H]2Cc1c3n(S(=O)(=O)c2ccc(C)cc2)c2cc(Br)ccc12 [Compound 15ag]	21.3 µM and 22 µM	9.71 µM and 8.01 µM	9.92 µM and 7.92 µM	15.3 µM and 19.1 µM	21.6 µM and 18.5 µM	15.8 µM and 16.1 µM	13 µM and 10.3 µM	7.82 µM and 8.4 µM	–	–	–	–	–	–	–	–	–	–	IC50 ([1]; Homo sapiens, MIA PaCa-2, 72 h, MTT, 72 h, mean of at least three independent experiments, read-out: IC50 MIA PaCa-2): 22.8 µM; IC50 ([1]; Homo sapiens, MIA PaCa-2, source data sheet, single values of three experiments, read-out: MTT IC50 MIA PaCa-2): 25 µM; IC50 ([2]; Homo sapiens, MDA-MB-231, 72 h, MTT, 72 h, mean of at least three independent experiments, read-out: IC50 MDA-MB-231): 8.59 µM; IC50 ([2]; Homo sapiens, MDA-MB-231, source data sheet, single values of three experiments, read-out: MTT IC50 MDA-MB-231): 8.05 µM; IC50 ([3]; Homo sapiens, HeLa, 72 h, MTT, 72 h, mean of at least three independent experiments, read-out: IC50 Hela): 9.89 µM; IC50 ([3]; Homo sapiens, HeLa, source data sheet, single values of three experiments, read-out: MTT IC50 Hela): 11.8 µM; IC50 ([4]; Homo sapiens, A549, 72 h, MTT, 72 h, mean of at least three independent experiments, read-out: IC50 A549): 18.2 µM; IC50 ([4]; Homo sapiens, A549, source data sheet, single values of three experiments, read-out: MTT IC50 A549): 20.1 µM; IC50 ([5]; Homo sapiens, MCF7, 72 h, MTT, 72 h, mean of at least three independent experiments, read-out: IC50 MCF-7): 20.9 µM; IC50 ([5]; Homo sapiens, MCF7, source data sheet, single values of three experiments, read-out: MTT IC50 MCF-7): 22.6 µM; IC50 ([6]; Mus musculus, CT26, 72 h, MTT, 72 h, mean of at least three independent experiments, read-out: IC50 CT26): 17.3 µM; IC50 ([6]; Mus musculus, CT26, source data sheet, single values of three experiments, read-out: MTT IC50 CT-26): 20 µM; IC50 ([7]; Homo sapiens, HCT-116, 72 h, MTT, 72 h, mean of at least three independent experiments, read-out: IC50 HCT 116): 12.4 µM; IC50 ([7]; Homo sapiens, HCT-116, source data sheet, single values of three experiments, read-out: MTT IC50 HCT-116): 14 µM; IC50 ([8]; Homo sapiens, A-375, 72 h, MTT, 72 h, mean of at least three independent experiments, read-out: IC50 A375): 8.88 µM; IC50 ([8]; Homo sapiens, A-375, source data sheet, single values of three experiments, read-out: MTT IC50 A375): 10.4 µM; IC50 at 72 h ([9]; BEAS-2B lung epithelial cells (normal cells), source data sheet, single values of three experiments): > 100 µM; CC50 at 72 h ([9]; BEAS-2B lung epithelial cells, MTT, 72 h, cytotoxicity towards normal cells, mean of at least three independent experiments): > 100 µM
C=C=C1CN2[C@H]3C[C@H]1[C@H](C=O)[C@@H]2Cc1c3n(S(=O)(=O)c2ccc(C(F)(F)F)cc2)c2ccccc12 [Compound 15am]	–	–	–	–	–	–	–	–	–	–	–	–	–	–	–	–	–	–	IC50 [10]: > 50 µM
C=C=C1CN2[C@H]3C[C@H]1[C@H](C(=O)C=C)[C@@H]2Cc1c3n(S(=O)(=O)c2ccc(C)cc2)c2ccccc12 [Compound 15aq]	22.2 µM and 19.5 µM and 18.9 µM	10.1 µM and 8.05 µM and 6.22 µM	12.4 µM and 9.52 µM and 10.6 µM	22.2 µM and 18.2 µM and 17.1 µM	24.3 µM and 27.2 µM and 22.8 µM	15.9 µM and 17.2 µM and 14.1 µM	12.2 µM and 8.29 µM and 10.3 µM	9.41 µM and 6.42 µM and 6.61 µM	20.2	8.12	10.9	19.2	24.8	15.7	10.3	7.48	> 100	> 100	–
CC=C1CN2C3CC1C(C=O)C2Cc1c3n(S(=O)(=O)c2ccc(C)cc2)c2ccccc12 (stereo not drawn) [Compound 15ar]	14.9 µM and 13 µM and 12 µM	5.08 µM and 4.02 µM and 4.8 µM	7.46 µM and 6.04 µM and 4.98 µM	16.5 µM and 14 µM and 11.7 µM	19.9 µM and 15.7 µM and 17.7 µM	10.9 µM and 8.18 µM and 9.11 µM	8.05 µM and 5.83 µM and 7.01 µM	5.71 µM and 3.87 µM and 4.03 µM	13.3	4.63	6.16	14.1	17.8	9.39	6.96	4.54	> 100	> 100	–
C=C=C1CN2[C@H]3C[C@H]1[C@H](C=O)[C@@H]2Cc1c3n(S(=O)(=O)c2ccc(C)cc2)c2cccc(Br)c12 [Compound 15ae]	39.9 µM and 44.1 µM and 36.8 µM	25.1 µM and 24.3 µM and 26.8 µM	34.5 µM and 31.3 µM and 30.4 µM	44.1 µM and 40.9 µM and 43.6 µM	35.2 µM and 29.7 µM and 31.4 µM	32.8 µM and 27.5 µM and 30 µM	30 µM and 26.1 µM and 27.9 µM	23.6 µM and 17.1 µM and 20.5 µM	40.3	25.4	32.1	42.9	32.1	30.1	28	20.4	> 100	> 100	–
